These results are taken from patent publication US6737547B1, “Compositions containing and methods of using N-acyl-1H-aminoindenes” (Teva Pharmaceutical Industries, Ltd., priority 1998, dated 2004).

“Also recorded” adds a separate entry of the source.

The test system of one series is mice. The experiment in a line: Protection against hypobaric hypoxia in mice (survival time). Type of series: in vivo. Conditions: for response vs control in vivo at 12.5 mg/kg / response vs control in vivo at 25 mg/kg / response vs control in vivo at 50 mg/kg / response vs control in vivo at 100 mg/kg: Mus musculus, ip, 200 mm Hg, read-out: survival ± SD (survival time as percent of vehicle control); for activity in the hypobaric hypoxia model (in words): dose of 25 mg/kg, listed in decreasing order of activity. As for the experimental part: The apparatus used consisted of two chambers A and B connected by a three-way valve. […] The air in chamber A was evacuated to a pressure of 100 mm Hg. The three way valve was turned to disconnect chamber B from room air and to connect it to chamber A. At this point, the pressure in B fell to 200 mm Hg. Survival of residing mice was determined up to a maximum exposure of 15 minutes, and is defined as the time between onset of hypoxia to cessation of respiration.

Series [1] concerns guinea-pig ileal preparation. Briefly: Decrease of contractile response to intramural electric stimulation in the guinea-pig ileal preparation. As to conditions: Cavia porcellus; calculated from logit plot; contractile response to intramural electric stimulation; read-out: EC50. As to the method:
A 2 cm-long section of the distal ileum freshly dissected from a CO2-asphyxiated guinea pig is cleaned from adhering tissue and mounted in an organ bath (5 mL) containing Krebs solution constantly aerated with oxygen containing 5% CO2. The initial tension is adjusted at 5 g per strip. Tension is monitored isometrically with a Grass FTC3 force transducer. Intramural electric stimulation is delivered through a platinum electrode from a Grass stimulator model s88, s44 at supramaximal voltage (V) and a frequency of 0.1/s. The preparation develops a rhythmic contractile response at maximal amplitude which is stable over time. Addition of test drugs to the organ bath causes a dose-dependent decrease in contraction amplitude which is stable over 5-8 minutes. The relative decrease in contractile response indicates the relative potency of a given agent in a series.
Blocking or decreasing neural excitability evoked by programmed electric stimulation is another indicator of a compound's potential neuroprotective activity. A convenient test system uses the guinea-pig ileal preparation mounted in an organ bath (see, for example, Eiichi Hayashi et al., European J. Pharmacol 48, 297-307, 1978).

In series [2] the test system is guinea-pig ileal preparation. The experiment in a line: Potentiation of adenosine depression of contractile response, procedure II (after exposure to and washout of test compound). As to conditions: for Mean potentiation ratio ± SEM / potentiation ratio, Max / potentiation ratio, Min: adenosine 0.4 uM, after exposure and washout, 5, 50-400, 6, 50-400; for Mean potentiation ratio ± SEM: drug conc. (uM): 3, 100-400, 2a, 1000, 2, 1000; for potentiation ratio, Max / potentiation ratio, Min: drug conc. range (uM): 3, 100-400; for potentiating effect retained after wash-out from the organ bath (in words): guinea pig ileal preparation after wash-out. As to the method: (§1) The test system used is the intramural electrically-stimulated guinea-pig ileal preparation as described in EXAMPLE 10. Adenosine added to the organ bath in rising concentrations in the range 0.1-10 uM causes a dose-dependent decrease in contraction amplitude, with an EC50 of about 1 uM.
(§2) The calculated effect is the product of the responses to each of the two agents when applied separately. The potentiation ratio is defined as (100%found)/(100-% calculated).
In all cases, the difference between the calculated and observed response was statistically significant. […] In procedure II, the dose response to adenosine was determined before and after exposure of the preparation to the test drug and washout of the test drug from the organ bath. In this case, significant potentiation of adenosine was observed even though the test drug had been washed out from the organ bath. In fact, the potentiation ratio, as defined earlier, was even higher than found in the presence of the test compounds (Procedure I), reaching very high values.

Series [3] concerns guinea-pig ileal preparation. The experiment in a line: Potentiation of adenosine depression of contractile response, procedure I (in the presence of test compound). Conditions: adenosine 0.4 uM; drug conc. range (uM): 3, 20-400; 5, 50-200; 6, 25-50; drug present. As for the experimental part:
as §1
In procedure I, the effect of a given concentration of adenosine, usually, 0.2 or 0.4 uM was first determined and related to the full contractile response in the absence of adenosine. […] The amplitude of the contractile response was recorded. Now, adenosine was added at the same dose initially used, and the effect of adenosine in the presence of the test compound was recorded.
as §2

In the next series the test system is Male ICR mice. Briefly: Protection against maximal electroshock-induced seizure in mice (MES). Type of series: in vivo. As to conditions: for protected/total: electroshock 30 min after medication; for ED50: Mus musculus, median effective dose, maximal electroshock, mice, ip, read-out: ED50 (95% confidence limits). As to the method:
Male ICR mice were used. The rodent shocker apparatus consisted of a shock stimulator Type 221 (Hugo Sachs Elektronik, Germany) with a current setting for mice. Thirty minutes after medication with a given agent, given intraperitoneally as a fine slurry in methyl cellulose 0.5% in distilled water, each mouse received an electroshock of 50 mA for 0.2 seconds, applied to the eye, at a maximum of 250 V/300 mA. The ratio of mice protected against seizure in a group of four per dose was determined and used as an indicator of neuroprotective activity.
Protection of mice against seizures induced by electroshock is a widely used model to probe for potential anti-epileptic agents (see, for example, Y. I. Sohn et al., Anticonvulsant properties of diphenylthiohydantoin, Arch. Int. Pharmacodyn. 188, 284-289, 1970).
For orientation: In the maximal electroshock model the usual endpoint is tonic extension of the hind limbs.

For series [4], the system named is guinea-pig ileal preparation. The experiment in a line: Decrease in contractile response of guinea-pig ileum evoked by the nicotinic agonist DMPP. As to conditions: for EC50: Cavia porcellus, calculated from logit plot, inhibiting contractile response to 1 uM DMPP, read-out: EC50. As for the experimental part: A strip of guinea-pig ileum is mounted in an organ bath, as described in EXAMPLE 10. 1-N,N-dimethyl-4-N-phenylpiperazinium chloride (DMPP) is added at intervals of about 15 minutes in order of increasing dose, to cause bath concentrations in the range of 0.1-10 uM. A brief contraction follows each addition. The amplitude of the contractile response is used to derive a dose-response relationship for DMPP. Usually, a bath concentration of 1 uM DMPP will give 90-100% of the maximal response obtainable in the given preparation. One of two procedures follows this: A dose-response of a test compound is determined in the presence of a fixed concentration of DMPP. This is done by incubating the preparation with a given concentration of the test compound, then challenging it with DMPP at a dose to give 1 uM bath concentration. The procedure is repeated with the next higher concentration of the test compound. In the other procedure, the dose-response of DMPP is determined in the presence of a fixed bath concentration of the test compound, usually 200 uM.
When intramural nerve stimulation occurs, as in the case of electrical stimulation, the contractile effector substance is released from nerve endings by a depolarization wave that propagates along the parasympathetic nerve fiber until its junction with smooth muscle of the ileum. An alternative but not equivalent procedure is stimulation of parasympathetic ganglia by an appropriate nicotinic agonist such as 1-N,N-dimethyl-4-N-phenylpiperazinium chloride (DMPP). Stimulation of parasympathetic ganglia causes a depolarization wave in the post-ganglionic nerve fiber which terminates on the smooth muscle of the ileum, causing release of contractile effector and contraction (see, for example, E. S. Vizi, Acetylcholine release from guinea-pig ileum by parasympathetic ganglion stimulants and gastrin-like polypeptides, Br. J. Pharmacol. 47, 765-77. 1973).

Take `CC(=O)NC1=CCc2ccccc21` [Compound 3, N-Acetyl-3-amino-1H-indene]: in the series with mice (50 mg/kg, mice), the “protection over 2a (control)” value was 1000%; the side effects entry was “minor and transient side effects such as slight sedation, hypopnea and defecation”; the response vs control in vivo at 50 mg/kg was 879 ± 237%. Further, in the series with mice (mice), the response vs control in vivo at 12.5 mg/kg came out at 637 ± 341%, the response vs control in vivo at 25 mg/kg stood at 735 ± 238% and the response vs control in vivo at 100 mg/kg was determined as 703 ± 242%. In the series with mice, the “activity in the hypobaric hypoxia model (in words)” value (from here on “activity”) is “strong activity”. Moreover, in series [1], the EC50 is 251 µM. Also, in series [2], the “Mean potentiation ratio ± SEM” value stood at 1.54 ± 0.25; the “potentiation ratio, Max” value is reported as 1.99; the “potentiation ratio, Min” value is reported as 1.14. In series [3], the “Mean potentiation ratio ± SEM” value is 1.49 ± 0.075; the “potentiation ratio, Max” value was determined as 1.74; the “potentiation ratio, Min” value was 1.29. In the series with Male ICR mice (100 mg/kg intraperitoneally), the protected/total is 1/4. Also, in the series with Male ICR mice (125 mg/kg intraperitoneally), the protected/total is listed as 2/4. Also, the protected/total in the series with Male ICR mice (150 mg/kg intraperitoneally) is 4/4. Moreover, in the series on Male ICR mice, the ED50 was determined as 116 mg/kg. In addition, in series [4], the EC50 is 170 µM. Also, the “reversibility of the depression by rising concentrations of DMPP” value in series [4] (test compound at 200 uM fixed bath concentration, FIG. 8) was “not reversible; also recorded: irreversibly blocked”.

Turning to `O=CNC1=CCc2ccccc21` [Compound 5, N-Formyl-3-amino-1H-indene], in the series with mice (mice), the response vs control in vivo at 12.5 mg/kg turned out to be 248 ± 154%, the response vs control in vivo at 25 mg/kg is 586 ± 253% and the response vs control in vivo at 100 mg/kg was determined as 489 ± 286%. Besides, the response vs control in vivo at 50 mg/kg in the series with mice (50 mg/kg, mice) stood at 331 ± 272%. Also, the “activity” value with mice is recorded as “strong activity”. Moreover, the EC50 in series [1] was 188 µM. Further, in series [2], the “Mean potentiation ratio ± SEM” value stood at 5.55 ± 1.0; the “potentiation ratio, Max” value came out at 7.28; the “potentiation ratio, Min” value is 3.78; the “potentiating effect retained after wash-out from the organ bath (in words)” value was “prolonged potentiating effect”. In addition, in series [3], the “Mean potentiation ratio ± SEM” value came to 2.19 ± 0.36; the “potentiation ratio, Max” value is given as 2.60; the “potentiation ratio, Min” value was determined as 1.47. Further, the protected/total in the series on Male ICR mice (50 mg/kg intraperitoneally) is 0/4. Also, in the series with Male ICR mice (75 mg/kg intraperitoneally), the protected/total is 1/4. The protected/total with Male ICR mice (100 mg/kg intraperitoneally) is recorded as 4/4. Besides, the ED50 in the series on Male ICR mice was 79.4 mg/kg. The EC50 in series [4] was 34 µM.

Turning to `CC(=O)NC1=CCc2cc(Cl)ccc21` [Compound 6, N-Acetyl-3-amino-6-chloro-1H-indene], in the series on mice (mice), the response vs control in vivo at 25 mg/kg stood at 393 ± 110% and the response vs control in vivo at 100 mg/kg turned out to be 294 ± 267%. For the same compound, in the series on mice (50 mg/kg, mice), the response vs control in vivo at 50 mg/kg turned out to be 234 ± 120%. Also, in the series with mice, the “activity” value was “strong activity”. For the same compound, in series [1], the EC50 was 133 µM. In addition, in series [2], the “Mean potentiation ratio ± SEM” value stood at 8.82 ± 1.2; the “potentiation ratio, Max” value is recorded as 12.28; the “potentiation ratio, Min” value is given as 6.86; the “potentiating effect retained after wash-out from the organ bath (in words)” value was “prolonged potentiating effect”. The “rate of restoration of the original response to adenosine after washout” value in series [2] (after exposure to and washout of the potentiating agent) was “slowest”. In series [3], the “Mean potentiation ratio ± SEM” value is given as 1.93 ± 0.39; the “potentiation ratio, Max” value amounted to 2.32; the “potentiation ratio, Min” value was 1.54. In the series with Male ICR mice (50 mg/kg intraperitoneally), the protected/total was 2/4. Moreover, the protected/total in the series on Male ICR mice (100 mg/kg intraperitoneally) was 4/4. The ED50 in the series on Male ICR mice was 50 mg/kg. Further, the EC50 in series [4] was 27 µM.

In general, EC50 refers to the concentration at which the effect is half-maximal. The ED50 is the midpoint of the dose-response relation.
